Assay results published in article PMC6026847, “Synthesis and Evaluation of the First Fluorescent Antagonists of the Human P2Y2 Receptor Based on AR-C118925” (Journal of Medicinal Chemistry, 2018).
Read-outs that look alike come from different tables or passages of the source.

Target: T1, hP2Y2R (Homo sapiens, UniProt P41231)
T1 construct: The 1321N1 cells expressing wild-type P2Y2R (P2Y2R-1321N1) were gifted by Dr. Elizabeth Rosethorne; expressed in transfected cells; host or cells: 1321N1 astrocytoma cells (P2Y2R-1321N1), gifted
T1 sequence (P41231 whole entry): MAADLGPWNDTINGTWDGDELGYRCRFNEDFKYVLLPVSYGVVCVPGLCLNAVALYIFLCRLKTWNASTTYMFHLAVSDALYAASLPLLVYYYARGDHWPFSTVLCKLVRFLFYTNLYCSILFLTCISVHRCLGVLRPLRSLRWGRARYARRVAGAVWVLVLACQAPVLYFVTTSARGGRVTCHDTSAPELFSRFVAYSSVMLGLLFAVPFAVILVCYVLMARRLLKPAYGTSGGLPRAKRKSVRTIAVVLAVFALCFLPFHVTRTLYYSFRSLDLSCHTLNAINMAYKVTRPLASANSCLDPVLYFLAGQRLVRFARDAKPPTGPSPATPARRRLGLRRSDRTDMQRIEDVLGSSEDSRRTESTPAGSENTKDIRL
Assay: Calcium-mobilization assay in P2Y2-1321N1 cells (antagonism of UTPγS)
Assay type: cell-based
Conditions: for Kb / hP2Y2 pKb: Gaddum equation, mean ± SEM; for Kb: read-out: hP2Y2 pKb (converted); for hP2Y2R antagonist activity in words: calcium-mobilization assay

[1] = Table 2, shift of UTPγS concentration–response curve by a single antagonist concentration
[2] = Table 1, shift of UTPγS concentration–response curve by a single antagonist concentration
[3] = Table 3, resolved enantiomers, shift of UTPγS curve

SMILES | hP2Y2R antagonist activity in words | hP2Y2 pKb [1] | further results
COCCNc1nc2c(s1)C=Cc1cc(Cl)ccc1C2c1cn(C)c(=O)[nH]c1=S (racemic) [Example 14, 5-(7-Chloro-2-((2-methoxyethyl)amino)-4H-benzo[5,6]cyclohepta[1,2-d]thiazol-4-yl)-1-methyl-4-thioxo-3,4-dihydropyrimidin-2(1H)-one] |  |  | Kb [1]: 251 nM
Cc1ccc2c(c1)C=Cc1cc(C)ccc1C2c1cn(Cc2nc(C(=O)Nc3nnn[nH]3)cs2)c(=O)[nH]c1=S [Example 3, 2-((5-(2,8-Dimethyl-5H-dibenzo[a,d][7]annulen-5-yl)-2-oxo-4-thioxo-3,4-dihydropyrimidin-1(2H)-yl)methyl)-N-(1H-tetrazol-5-yl)thiazole-4-carboxamide] |  |  | Kb [2]: 77.6 nM
Cc1ccc2c(c1)C=Cc1cc(C)ccc1C2c1cn(C)c(=O)[nH]c1=S [Example 4, 5-(2,8-Dimethyl-5H-dibenzo[a,d][7]annulen-5-yl)-1-methyl-4-thioxo-3,4-dihydropyrimidin-2(1H)-one] | inactive |  | hP2Y2 pKb [2]: IA ^b (IA = inactive; i.e., less than a 50% inhibition of the response to 0.1 μM UTPγS in the presence of a 10 μM concentration of the compound)
Cc1nc2c(s1)C=Cc1cc(Cl)ccc1C2c1cn(Cc2nc(C(=O)Nc3nnn[nH]3)cs2)c(=O)[nH]c1=S (stereo not shown) [Example 5, 2-((5-(7-Chloro-2-methyl-4H-benzo[5,6]cyclohepta[1,2-d]thiazol-4-yl)-2-oxo-4-thioxo-3,4-dihydropyrimidin-1(2H)-yl)methyl)-N-(1H-tetrazol-5-yl)thiazole-4-carboxamide] |  |  | Kb [2]: 331 nM
Cc1nc2c(s1)C=Cc1cc(Cl)ccc1C2c1cn(C)c(=O)[nH]c1=S (stereo not shown) [Example 6, 5-(7-Chloro-2-methyl-4H-benzo[5,6]cyclohepta[1,2-d]thiazol-4-yl)-1-methyl-4-thioxo-3,4-dihydropyrimidin-2(1H)-one] |  |  | Kb [2]: 1020 nM
Cn1cc(C2c3ccc(Cl)cc3C=Cc3sc(N)nc32)c(=S)[nH]c1=O (stereo not shown) [Example 7, 5-(2-Amino-7-chloro-4H-benzo[5,6]cyclohepta[1,2-d]thiazol-4-yl)-1-methyl-4-thioxo-3,4-dihydropyrimidin-2(1H)-one] |  |  | Kb [1]: 275 nM
Cn1cc(C2c3ccc(Cl)cc3C=Cc3sc(Nc4ccccc4)nc32)c(=S)[nH]c1=O (stereo not shown) [Example 8, 5-(7-Chloro-2-(phenylamino)-4H-benzo[5,6]cyclohepta[1,2-d]thiazol-4-yl)-1-methyl-4-thioxo-3,4-dihydropyrimidin-2(1H)-one] | inactive | IA ^b (3) (IA = inactive; i.e., less than a 50% inhibition of the response to 0.1 μM UTPγS in the presence of a 10 μM concentration of the compound (n = 3)) | 
Cn1cc(C2c3ccc(Cl)cc3C=Cc3sc(NCc4ccccc4)nc32)c(=S)[nH]c1=O (stereo not shown) [Example 9, 5-(2-(Benzylamino)-7-chloro-4H-benzo[5,6]cyclohepta[1,2-d]thiazol-4-yl)-1-methyl-4-thioxo-3,4-dihydropyrimidin-2(1H)-one] | inactive | IA (3) (IA = inactive; i.e., less than a 50% inhibition of the response to 0.1 μM UTPγS in the presence of a 10 μM concentration of the compound (n = 3)) | 
Cn1cc(C2c3ccc(Cl)cc3C=Cc3sc(NCCc4ccccc4)nc32)c(=S)[nH]c1=O (stereo not shown) [Example 10, 5-(7-Chloro-2-(phenethylamino)-4H-benzo[5,6]cyclohepta[1,2-d]thiazol-4-yl)-1-methyl-4-thioxo-3,4-dihydropyrimidin-2(1H)-one] | inactive | IA (3) (IA = inactive; i.e., less than a 50% inhibition of the response to 0.1 μM UTPγS in the presence of a 10 μM concentration of the compound (n = 3)) | 
CN1CCN(c2nc3c(s2)C=Cc2cc(Cl)ccc2C3c2cn(C)c(=O)[nH]c2=S)CC1 (stereo not shown) [Example 11, 5-(7-Chloro-2-(4-methylpiperazin-1-yl)-4H-benzo[5,6]cyclohepta[1,2-d]thiazol-4-yl)-1-methyl-4-thioxo-3,4-dihydropyrimidin-2(1H)-one] | inactive | IA (3) (IA = inactive; i.e., less than a 50% inhibition of the response to 0.1 μM UTPγS in the presence of a 10 μM concentration of the compound (n = 3)) | 
Cn1cc(C2c3ccc(Cl)cc3C=Cc3sc(N4CCOCC4)nc32)c(=S)[nH]c1=O (stereo not shown) [Example 12, 5-(7-Chloro-2-morpholino-4H-benzo[5,6]cyclohepta[1,2-d]thiazol-4-yl)-1-methyl-4-thioxo-3,4-dihydropyrimidin-2(1H)-one] | inactive | IA (3) (IA = inactive; i.e., less than a 50% inhibition of the response to 0.1 μM UTPγS in the presence of a 10 μM concentration of the compound (n = 3)) | 
Cn1cc(C2c3ccc(Cl)cc3C=Cc3sc(N4CCCCC4)nc32)c(=S)[nH]c1=O (stereo not shown) [Example 13, 5-(7-Chloro-2-(piperidin-1-yl)-4H-benzo[5,6]cyclohepta[1,2-d]thiazol-4-yl)-1-methyl-4-thioxo-3,4-dihydropyrimidin-2(1H)-one] | inactive | IA (3) (IA = inactive; i.e., less than a 50% inhibition of the response to 0.1 μM UTPγS in the presence of a 10 μM concentration of the compound (n = 3)) | 
COCCCNc1nc2c(s1)C=Cc1cc(Cl)ccc1C2c1cn(C)c(=O)[nH]c1=S (stereo not shown) [Example 15, 5-(7-Chloro-2-((3-methoxypropyl)amino)-4H-benzo[5,6]cyclohepta[1,2-d]thiazol-4-yl)-1-methyl-4-thioxo-3,4-dihydropyrimidin-2(1H)-one] |  |  | Kb [1]: 275 nM
CCOCCNc1nc2c(s1)C=Cc1cc(Cl)ccc1C2c1cn(C)c(=O)[nH]c1=S (stereo not shown) [Example 16, 5-(7-Chloro-2-((2-ethoxyethyl)amino)-4H-benzo[5,6]cyclohepta[1,2-d]thiazol-4-yl)-1-methyl-4-thioxo-3,4-dihydropyrimidin-2(1H)-one] |  |  | Kb [1]: 186 nM
CC(C)OCCNc1nc2c(s1)C=Cc1cc(Cl)ccc1C2c1cn(C)c(=O)[nH]c1=S (stereo not shown) [Example 17, 5-(7-Chloro-2-((2-isopropoxyethyl)amino)-4H-benzo[5,6]cyclohepta[1,2-d]thiazol-4-yl)-1-methyl-4-thioxo-3,4-dihydropyrimidin-2(1H)-one] |  |  | Kb [1]: 324 nM
Cn1cc(C2c3ccc(Cl)cc3C=Cc3sc(NCCOc4ccccc4)nc32)c(=S)[nH]c1=O (stereo not shown) [Example 18, 5-(7-Chloro-2-((2-phenoxyethyl)amino)-4H-benzo[5,6]cyclohepta[1,2-d]thiazol-4-yl)-1-methyl-4-thioxo-3,4-dihydropyrimidin-2(1H)-one] | inactive | IA (3) (IA = inactive; i.e., less than a 50% inhibition of the response to 0.1 μM UTPγS in the presence of a 10 μM concentration of the compound (n = 3)) | 
Cn1cc(C2c3ccc(Cl)cc3C=Cc3sc(-c4ccccc4)nc32)c(=S)[nH]c1=O (stereo not shown) [Example 19, 5-(7-Chloro-2-phenyl-4H-benzo[5,6]cyclohepta[1,2-d]thiazol-4-yl)-1-methyl-4-thioxo-3,4-dihydropyrimidin-2(1H)-one] | complete loss of affinity | IA (3) (IA = inactive; i.e., less than a 50% inhibition of the response to 0.1 μM UTPγS in the presence of a 10 μM concentration of the compound (n = 3)) | 
COCCNc1nc2c(s1)C=Cc1cc(Cl)ccc1C2c1cn(C)c(=O)[nH]c1=S (stereo not shown) [Example 20] |  |  | Kb [3]: 234 nM
COCCNc1nc2c(s1)C=Cc1cc(Cl)ccc1C2c1cn(C)c(=O)[nH]c1=S (stereo not shown) [Example 21] |  |  | Kb [3]: 1510 nM
